Legend:
Mouse EL = Mouse EL (Mus musculus (Mouse), UniProt Q9WVG5); test: Endothelial lipase assay, cell surface lipase activity (mouse EL); type: cell-based; conditions: PLA1 substrate 10 μM, fluorescence rate
Procedure: [The source words this procedure for another species and reports this species under the same test.] (§1) To assay for cell surface lipase activity, cells expressing human endothelial lipase (EL) or LPL were plated in CellBIND® 384-well plates (Corning, Lowell, Mass.) in 25 μL serum free medium at a density of 2000 cells/well. After 18-24 hours incubation at 37° C., the medium was removed and replaced with 15 μL assay buffer [Hank's Buffered Saline Solution with 25 mM HEPES pH 7.2] and 15 μL PLA1 substrate for a final concentration of 10 μM using a Multidrop reagent dispenser. Fluorescence signal was monitored for 30 min at 37° C. on a Safire II plate reader in kinetic mode (60 cycles, kinetic interval: 30 seconds) with an excitation wavelength of 490 nm and an emission wavelength of 515 nm. […] The amount of BODIPY-labeled product generated was calculated at the 30 min time point as determined from standard curve analysis of purified BODIPY FL C5.

[1] = biological target: human endothelial lipase (EL) (Homo sapiens (Human), UniProt Q9Y5X9); test: Endothelial lipase assay, cell surface lipase activity (human EL); type: cell-based; conditions: cells expressing human EL, PLA1 substrate 10 μM, fluorescence rate
Sequence of human endothelial lipase (EL) (Q9Y5X9 21-500): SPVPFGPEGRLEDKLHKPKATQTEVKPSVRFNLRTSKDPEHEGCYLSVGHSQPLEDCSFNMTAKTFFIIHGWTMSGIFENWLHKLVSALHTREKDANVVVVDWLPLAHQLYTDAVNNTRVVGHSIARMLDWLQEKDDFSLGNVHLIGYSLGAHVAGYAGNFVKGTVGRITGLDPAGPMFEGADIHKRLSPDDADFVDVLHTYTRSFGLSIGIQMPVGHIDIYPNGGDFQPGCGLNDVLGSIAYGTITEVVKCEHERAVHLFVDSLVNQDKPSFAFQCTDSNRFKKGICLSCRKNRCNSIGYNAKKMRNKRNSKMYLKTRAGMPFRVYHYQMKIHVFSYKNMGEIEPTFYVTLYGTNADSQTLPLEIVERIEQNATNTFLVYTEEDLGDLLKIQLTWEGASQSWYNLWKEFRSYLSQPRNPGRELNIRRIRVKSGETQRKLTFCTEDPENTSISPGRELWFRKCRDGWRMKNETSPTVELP
Procedure: as §1

Sequence of Mouse EL (Q9WVG5 21-500): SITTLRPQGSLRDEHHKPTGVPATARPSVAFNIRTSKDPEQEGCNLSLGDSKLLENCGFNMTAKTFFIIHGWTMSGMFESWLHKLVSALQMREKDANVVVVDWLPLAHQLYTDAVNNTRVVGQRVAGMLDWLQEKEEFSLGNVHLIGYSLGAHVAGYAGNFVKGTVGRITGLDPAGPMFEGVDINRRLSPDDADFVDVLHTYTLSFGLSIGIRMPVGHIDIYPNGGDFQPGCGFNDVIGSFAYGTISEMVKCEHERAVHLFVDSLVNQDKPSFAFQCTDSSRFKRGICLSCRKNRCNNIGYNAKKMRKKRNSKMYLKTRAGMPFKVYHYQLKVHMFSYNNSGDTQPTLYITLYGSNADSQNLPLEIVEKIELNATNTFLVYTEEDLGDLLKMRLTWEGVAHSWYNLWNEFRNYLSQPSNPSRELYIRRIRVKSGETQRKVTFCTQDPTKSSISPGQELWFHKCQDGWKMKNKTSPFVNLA

FC(F)(F)c1c(CCCc2ccccc2)n2c3c(cccc13)CC2 [Compound 1]
IC50 (Mouse EL): 0.195 µM
IC50 [1]: 0.185 µM

FC(F)(F)c1c(CCc2ccccc2)n2c3c(cccc13)CCC2 [Compound 2, 2-Phenethyl-1-(trifluoromethyl)-5,6-dihydro-4H-pyrrolo[3,2,1-ij]quinoline, reference compound]
IC50 (Mouse EL): 0.048 µM
IC50 [1]: 0.022 µM

FC(F)(F)c1c(Cc2ccccc2)n2c3c(cccc13)CCC2 [Compound 3]
IC50 (Mouse EL): 0.096 µM
IC50 [1]: 0.115 µM

FC(F)(F)c1c(CCCc2ccccc2)n2c3c(cccc13)CCC2 [Compound 4]
IC50 (Mouse EL): 0.205 µM
IC50 [1]: 0.143 µM

COc1cc2c3c(c1)c(C(F)(F)F)c(CCc1ccccc1)n3CCC2 [Compound 5]
IC50 (Mouse EL): 0.017 µM
IC50 [1]: 0.014 µM

Oc1cc2c3c(c1)c(C(F)(F)F)c(CCc1ccccc1)n3CCC2 [Compound 6]
IC50 (Mouse EL): 0.136 µM
IC50 [1]: 0.071 µM

FC(F)(F)c1c(CCc2ccccc2)n2c3c(cccc13)CCCC2 [Compound 9, 2-phenethyl-1-(trifluoromethyl)-4,5,6,7-tetrahydroazepino[3,2,1-hi]indole]
IC50 (Mouse EL): 0.036 µM
IC50 [1]: 0.043 µM

FC(F)(F)c1c(CCCc2ccccc2)n2c3c(cccc13)CCCC2 [Compound 11]
IC50 (Mouse EL): 1.2 µM
IC50 [1]: 0.36 µM

CC(C)NC(=O)N1CCn2c(CCc3ccccc3)c(C(F)(F)F)c3cccc(c32)C1 [Compound 12, N-isopropyl-6-phenethyl-7-(trifluoromethyl)-3,4-dihydro-[1,4]diazepino[6,7,1-hi]indole-2(1H)-carboxamide]
IC50 (Mouse EL): 0.131 µM
IC50 [1]: 0.135 µM

CC(C)(C)OC(=O)N1CCn2c(CCc3ccccc3)c(C(F)(F)F)c3cccc(c32)C1 [Compound 13, tert-butyl 6-phenethyl-7-(trifluoromethyl)-3,4-dihydro-[1,4]diazepino[6,7,1-hi]indole-2(1H)-carboxylate]
IC50 (Mouse EL): 0.124 µM
IC50 [1]: 0.15 µM

O=C(Nc1ccccc1)N1CCn2c(CCc3ccccc3)c(C(F)(F)F)c3cccc(c32)C1 [Compound 14, 6-phenethyl-N-phenyl-7-(trifluoromethyl)-3,4-dihydro-[1,4]diazepino[6,7,1-hi]indole-2(1H)-carboxamide]
IC50 (Mouse EL): 0.162 µM
IC50 [1]: 0.168 µM

FC(F)(F)c1c(CCc2ccccc2)n2c3c(cccc13)CNCC2 [Compound 15, 6-phenethyl-7-(trifluoromethyl)-1,2,3,4-tetrahydro-[1,4]diazepino[6,7,1-hi]indole]
IC50 (Mouse EL): 0.677 µM
IC50 [1]: 0.694 µM

CN(C)CC(=O)N1CCn2c(CCc3ccccc3)c(C(F)(F)F)c3cccc(c32)C1 [Compound 16, 2-(dimethylamino)-1-(6-phenethyl-7-(trifluoromethyl)-3,4-dihydro-[1,4]diazepino[6,7,1-hi]indol-2(1H)-yl)ethanone]
IC50 (Mouse EL): 1 µM
IC50 [1]: 0.959 µM

N=C(N)N1CCn2c(CCc3ccccc3)c(C(F)(F)F)c3cccc(c32)C1 [Compound 17, 6-phenethyl-7-(trifluoromethyl)-3,4-dihydro-[1,4]diazepino[6,7,1-hi]indole-2(1H)-carboximidamide]
IC50 (Mouse EL): 3.62 µM
IC50 [1]: 4.82 µM

NCC(=O)N1CCn2c(CCc3ccccc3)c(C(F)(F)F)c3cccc(c32)C1 [Compound 18, 2-amino-1-(6-phenethyl-7-(trifluoromethyl)-3,4-dihydro-[1,4]diazepino[6,7,1-hi]indol-2(1H)-yl)ethanone]
IC50 (Mouse EL): 1.89 µM
IC50 [1]: 2.02 µM

CC(=O)OCC(=O)N1CCn2c(CCc3ccccc3)c(C(F)(F)F)c3cccc(c32)C1 [Compound 20, 2-oxo-2-(6-phenethyl-7-(trifluoromethyl)-3,4-dihydro-[1,4]diazepino[6,7,1-hi]indol-2(1H)-yl)ethyl acetate]
IC50 (Mouse EL): 0.479 µM
IC50 [1]: 0.442 µM

O=C(CC(F)(F)F)N1CCn2c(CCc3ccccc3)c(C(F)(F)F)c3cccc(c32)C1 [Compound 21, 3,3,3-trifluoro-1-(6-phenethyl-7-(trifluoromethyl)-3,4-dihydro-[1,4]diazepino[6,7,1-hi]indol-2(1H)-yl)propan-1-one]
IC50 (Mouse EL): 0.237 µM
IC50 [1]: 0.255 µM

OCCN1CCn2c(CCc3ccccc3)c(C(F)(F)F)c3cccc(c32)C1 [Compound 23, 2-(6-phenethyl-7-(trifluoromethyl)-3,4-dihydro-[1,4]diazepino[6,7,1-hi]indol-2(1H)-yl)ethanol]
IC50 (Mouse EL): 0.346 µM
IC50 [1]: 0.28 µM

CS(=O)(=O)N1CCn2c(CCc3ccccc3)c(C(F)(F)F)c3cccc(c32)C1 [Compound 24, 2-(methylsulfonyl)-6-phenethyl-7-(trifluoromethyl)-1,2,3,4-tetrahydro-[1,4]diazepino[6,7,1-hi]indole]
IC50 (Mouse EL): 0.34 µM
IC50 [1]: 0.186 µM

FC(F)(F)c1c(CCc2ccccc2)n2c3c(cccc13)OCC2 [Compound 25, 5-phenethyl-6-(trifluoromethyl)-2,3-dihydro-[1,4]oxazino[2,3,4-hi]indole]
IC50 (Mouse EL): 0.031 µM
IC50 [1]: 0.039 µM

FC(F)(F)c1c(CCCc2ccccc2)n2c3c(cccc13)OCC2 [Compound 26]
IC50 (Mouse EL): 0.618 µM
IC50 [1]: 0.413 µM

FC(F)(F)c1c(CCCOc2ccccc2)n2c3c(cccc13)OCC2 [Compound 27]
IC50 (Mouse EL): 0.108 µM
IC50 [1]: 0.082 µM

FC(F)(F)c1c(CCCc2ccccc2)n2c3c(cccc13)SCC2 [Compound 28]
IC50 (Mouse EL): 33.3 µM
IC50 [1]: 33.3 µM

Reference: US9216998B2, “Tricyclic indole derivatives useful endothelial lipase inhibitors” (Janssen Pharmaceutica, NV, priority 2012, dated 2015)
